ChEMBL document CHEMBL1201862, “PubChem BioAssay data set” (2004)
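96-well plates; 48 h exposure; 5 concentrations. Endpoints by linear interpolation between flanking doses. Not reached: highest tested concentration assigned. GI50: concentration for 50% inhibition of growth.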 Calls of active or inactive are those of the source. Cut-off read from the data, not from the text of the source: active = GI50 up to about 1.1 µM and inactive = higher.

Legend:
Experiment in all cases: NCI-60 cell line screen, 48 h
[1] = tested on: CAKI-1
[2] = tested on: NCI/ADR-RES
[3] = tested on: RPMI-8226
[4] = tested on: MOLT-4
[5] = tested on: OVCAR-8
[6] = tested on: T47D
[7] = tested on: SF-539
[8] = tested on: NCI-H23
[9] = tested on: UO-31
[10] = tested on: MDA-MB-231
[11] = tested on: OVCAR-5
[12] = tested on: HCC 2998
[13] = tested on: 786-0
[14] = tested on: NCI-H522
[15] = tested on: Malme-3M
[16] = tested on: DU-145
[17] = tested on: K562
[18] = tested on: M14
[19] = tested on: HOP-62
[20] = tested on: UACC-62
[21] = tested on: A549
[22] = tested on: SN12C
[23] = tested on: SK-MEL-5
[24] = tested on: SF-268
[25] = tested on: EKVX
[26] = tested on: SW-620
[27] = tested on: RXF 393
[28] = tested on: HT-29
[29] = tested on: BT-549
[30] = tested on: SF-295
[31] = tested on: HL-60
[32] = tested on: MCF7
[33] = tested on: MDA-MB-435
[34] = tested on: Hs-578T
[35] = tested on: SK-MEL-28
[36] = tested on: SNB-19
[37] = tested on: HOP-92
[38] = tested on: MDA-N
[39] = tested on: CCRF-CEM
[40] = tested on: OVCAR-3
[41] = tested on: SNB-75
[42] = tested on: IGROV-1
[43] = tested on: NCI-H226
[44] = tested on: HCT-15
[45] = tested on: KM12
[46] = tested on: A498
[47] = tested on: SR
[48] = tested on: HCT-116
[49] = tested on: NCI-H460
[50] = tested on: ACHN
[51] = tested on: U-251
[52] = tested on: UACC-257
[53] = tested on: LOX IMVI
[54] = tested on: COLO 205
[55] = tested on: OVCAR-4
[56] = tested on: TK-10
[57] = tested on: SK-MEL-2
[58] = tested on: SK-OV-3
[59] = tested on: PC-3

With `CCOC(=O)C1CCC(=O)N1C(=O)c1ccc(Cl)cc1` (configuration not stated) the GI50 [1] was > 100 µM (inactive), the GI50 [2] was > 100 µM (inactive) and the GI50 [3] was > 100 µM (inactive). The GI50 [4] was > 100 µM (inactive), the GI50 [5] was > 100 µM (inactive) and the GI50 [6] was > 100 µM (inactive). For the same molecule, the GI50 [7] was > 100 µM (inactive), the GI50 [8] was > 100 µM (inactive) and the GI50 [9] was > 100 µM (inactive). The GI50 [10] was > 100 µM (inactive), the GI50 [11] was > 100 µM (inactive) and the GI50 [12] was > 100 µM (inactive). The GI50 [13] was > 100 µM (inactive), the GI50 [14] was > 100 µM (inactive) and the GI50 [15] was > 100 µM (inactive). For the same molecule, the GI50 [16] was > 100 µM (inactive), the GI50 [17] was > 100 µM (inactive) and the GI50 [18] was > 100 µM (inactive). For the same molecule, the GI50 [19] was > 100 µM (inactive), the GI50 [20] was 22.3 µM (inactive) and the GI50 [21] was > 100 µM (inactive). For the same molecule, the GI50 [22] was > 100 µM (inactive), the GI50 [23] was > 100 µM (inactive) and the GI50 [24] was > 100 µM (inactive). The GI50 [25] was > 100 µM (inactive), the GI50 [26] was > 100 µM (inactive) and the GI50 [27] was > 100 µM (inactive). For the same molecule, the GI50 [28] was > 100 µM (inactive), the GI50 [29] was > 100 µM (inactive) and the GI50 [30] was > 100 µM (inactive). The GI50 [31] was > 100 µM (inactive), the GI50 [32] was > 100 µM (inactive) and the GI50 [33] was > 100 µM (inactive). For the same molecule, the GI50 [34] was > 100 µM (inactive), the GI50 [35] was > 100 µM (inactive) and the GI50 [36] was > 100 µM (inactive). For the same molecule, the GI50 [37] was > 100 µM (inactive), the GI50 [38] was > 100 µM (inactive) and the GI50 [39] was > 100 µM (inactive). For the same molecule, the GI50 [40] was > 100 µM (inactive), the GI50 [41] was > 100 µM (inactive) and the GI50 [42] was > 100 µM (inactive). For the same molecule, the GI50 [43] was > 100 µM (inactive), the GI50 [44] was over 100 µM and the GI50 [45] was > 100 µM (inactive). For the same molecule, the GI50 [46] was > 100 µM (inactive), the GI50 [47] was > 100 µM (inactive) and the GI50 [48] was > 100 µM (inactive). The GI50 [49] was > 100 µM (inactive), the GI50 [50] was > 100 µM (inactive) and the GI50 [51] was > 100 µM (inactive). For the same molecule, the GI50 [52] was > 100 µM (inactive) and the GI50 [53] was > 100 µM (inactive).
For `Nc1nc2[nH]cc(CCc3ccc(C(=O)N[C@@H](CCC(=O)O)C(=O)O)cc3)c2c(=O)[nH]1` [PEMETREXED], the GI50 [1] was > 100 µM (inactive), the GI50 [4] was 0.0695 µM (active) and the GI50 [6] was > 100 µM (inactive). For the same molecule, the GI50 [7] was < 0.01 µM (active), the GI50 [8] was > 100 µM (inactive) and the GI50 [10] was 10.3 µM (inactive). For the same molecule, the GI50 [11] was > 100 µM (inactive), the GI50 [12] was < 0.01 µM (active) and the GI50 [13] was < 0.0104 µM (active). The GI50 [14] was > 100 µM (inactive), the GI50 [15] was > 100 µM (inactive) and the GI50 [54] was > 100 µM (inactive). The GI50 [16] was > 100 µM (inactive), the GI50 [17] was < 0.0258 µM (active) and the GI50 [18] was > 100 µM (inactive). For the same molecule, the GI50 [55] was > 100 µM (inactive), the GI50 [19] was > 100 µM (inactive) and the GI50 [20] was 0.23 µM (active). For the same molecule, the GI50 [21] was 1.4 µM (inactive), the GI50 [22] was > 100 µM (inactive) and the GI50 [23] was > 100 µM (inactive). For the same molecule, the GI50 [24] was 0.387 µM (active), the GI50 [25] was > 100 µM (inactive) and the GI50 [26] was > 100 µM (inactive). The GI50 [27] was > 100 µM (inactive), the GI50 [28] was > 100 µM (inactive) and the GI50 [56] was > 100 µM (inactive). For the same molecule, the GI50 [29] was > 100 µM (inactive), the GI50 [30] was 0.418 µM (active) and the GI50 [31] was 0.0652 µM (active). The GI50 [32] was < 0.0147 µM (active), the GI50 [33] was > 100 µM (inactive) and the GI50 [34] was > 100 µM (inactive). For the same molecule, the GI50 [35] was > 100 µM (inactive), the GI50 [36] was > 100 µM (inactive) and the GI50 [37] was > 100 µM (inactive). For the same molecule, the GI50 [38] was > 100 µM (inactive), the GI50 [40] was > 100 µM (inactive) and the GI50 [41] was > 100 µM (inactive). The GI50 [42] was > 100 µM (inactive), the GI50 [43] was > 100 µM (inactive) and the GI50 [57] was > 100 µM (inactive). The GI50 [44] was over 100 µM, the GI50 [45] was > 100 µM (inactive) and the GI50 [58] was > 100 µM (inactive). For the same molecule, the GI50 [46] was 0.27 µM (active), the GI50 [47] was > 100 µM (inactive) and the GI50 [59] was > 100 µM (inactive). The GI50 [48] was 0.0597 µM (active), the GI50 [49] was 0.0359 µM (active) and the GI50 [50] was 0.0255 µM (active). The GI50 [51] was > 100 µM (inactive), the GI50 [52] was > 100 µM (inactive) and the GI50 [53] was 0.0743 µM (active).
